Assay results: the supplement of paper PMC10307832

Columns and labels:
Test in all cases: relative viability (nuclei count vs DMSO), 5 days (fraction); higher = more cells survive
[1] = compound: CNC(=O)c1ccccc1Sc1ccc2c(/C=C/c3ccccn3)n[nH]c2c1 [Axitinib]
Procedure, shortened: (§1)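 Nuclei counted with MetaXpress define viability as the ratio of treated to vehicle wells, given as a median across plates. The lung cancer cell lines were in 1536-well plates, pinned with five √10-spaced library-drug doses and imaged at 4× after 5 days and Hoechst staining. Plates passed with control CV below 25% and at least one doubling.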

[2] = compound: CC1=CC=C(C=C1)C(=O)CN2C3=C(CCCC3)SC2=N [Pifithrin_alpha]
Procedure, shortened: as §1

[3] = compound: Nc1nc(Nc2ccc3c(c2)CC[C@@H](N2CCCC2)CC3)nn1-c1cc2c(nn1)-c1ccccc1CCC2 [Bemcentinib]
Procedure, shortened: as §1

[4] = compound: CC1=CC=C(C=C1)C(=O)CN2C3=C(CCCC3)SC2=N [Pifithrin_alpha] + COc1cc2c(Oc3ccc(NC(=O)C4(C(=O)Nc5ccc(F)cc5)CC4)cc3F)ccnc2cc1OCCCN1CCOCC1 [Foretinib] (partner 0.25 µM)
Procedure, shortened: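 Relative viability equals treated-well nuclei counts divided by vehicle-well nuclei counts. Counts came from 4× images of lung cancer cell lines grown in 1536-well plates for 5 days after pin-tool dosing on the day after seeding. Dosing used one drug alone or a fixed anchor-drug dose plus five library-drug doses (not always all listed) in √10 steps, and values are medians of duplicate plates.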

## PC-14
[1]; 0.005 µM
  relative viability: 1.05
[1]; 0.01581 µM
  relative viability: 0.808
[1]; 0.05 µM
  relative viability: 1.09
[1]; 0.1581 µM
  relative viability: 0.951
[1]; 0.5 µM
  relative viability: 1.13
[2]; 1 µM
  relative viability: 0.866
[2]; 3.162 µM
  relative viability: 1.02
[2]; 10 µM
  relative viability: 0.949
[2]; 31.62 µM
  relative viability: 0.625
[2]; 100 µM
  relative viability: 0.842
[3]; 0.04 µM
  relative viability: 1.02
[3]; 0.1265 µM
  relative viability: 1.15
[3]; 0.4 µM
  relative viability: 1.1
[3]; 1.265 µM
  relative viability: 1.02
[3]; 4 µM
  relative viability: 1.02
[4]; first compound 1 µM
  relative viability: 1.09
[4]; first compound 3.162 µM
  relative viability: 0.998
[4]; first compound 10 µM
  relative viability: 1.03
[4]; first compound 31.62 µM
  relative viability: 0.791
[4]; first compound 100 µM
  relative viability: 0.94

## H3255
[1]; 0.005 µM
  relative viability: 0.985
[1]; 0.01581 µM
  relative viability: 0.851
[1]; 0.05 µM
  relative viability: 0.912
[1]; 0.1581 µM
  relative viability: 0.894
[1]; 0.5 µM
  relative viability: 0.896
[2]; 1 µM
  relative viability: 0.856
[2]; 3.162 µM
  relative viability: 0.93
[2]; 10 µM
  relative viability: 0.945
[2]; 31.62 µM
  relative viability: 0.71
[2]; 100 µM
  relative viability: 0.795
[3]; 0.04 µM
  relative viability: 0.804
[3]; 0.1265 µM
  relative viability: 0.994
[3]; 0.4 µM
  relative viability: 0.993
[3]; 1.265 µM
  relative viability: 0.951
[3]; 4 µM
  relative viability: 0.964
[4]; first compound 1 µM
  relative viability: 0.716
[4]; first compound 3.162 µM
  relative viability: 0.949
[4]; first compound 10 µM
  relative viability: 0.827
[4]; first compound 31.62 µM
  relative viability: 0.777
[4]; first compound 100 µM
  relative viability: 0.92

## NCI-H1563
[1]; 0.005 µM
  relative viability: 0.999
[1]; 0.01581 µM
  relative viability: 0.887
[1]; 0.05 µM
  relative viability: 0.973
[1]; 0.1581 µM
  relative viability: 0.924
[1]; 0.5 µM
  relative viability: 0.891
[2]; 1 µM
  relative viability: 0.999
[2]; 3.162 µM
  relative viability: 0.996
[2]; 10 µM
  relative viability: 0.981
[2]; 31.62 µM
  relative viability: 0.957
[2]; 100 µM
  relative viability: 0.895
[3]; 0.04 µM
  relative viability: 0.993
[3]; 0.1265 µM
  relative viability: 0.961
[3]; 0.4 µM
  relative viability: 0.971
[3]; 1.265 µM
  relative viability: 1.14
[3]; 4 µM
  relative viability: 1.05
[4]; first compound 1 µM
  relative viability: 0.879
[4]; first compound 3.162 µM
  relative viability: 0.912
[4]; first compound 10 µM
  relative viability: 0.875
[4]; first compound 31.62 µM
  relative viability: 0.881
[4]; first compound 100 µM
  relative viability: 0.81

## NCI-H3122
[1]; 0.005 µM
  relative viability: 0.973
[1]; 0.01581 µM
  relative viability: 0.985
[1]; 0.05 µM
  relative viability: 1.02
[1]; 0.1581 µM
  relative viability: 1.02
[1]; 0.5 µM
  relative viability: 1.11
[2]; 1 µM
  relative viability: 0.982
[2]; 3.162 µM
  relative viability: 0.999
[2]; 10 µM
  relative viability: 0.965
[2]; 31.62 µM
  relative viability: 0.745
[2]; 100 µM
  relative viability: 1.02
[3]; 0.1265 µM
  relative viability: 1.06
[3]; 0.4 µM
  relative viability: 0.977
[3]; 1.265 µM
  relative viability: 1.06
[3]; 4 µM
  relative viability: 1.06
[4]; first compound 1 µM
  relative viability: 0.932
[4]; first compound 3.162 µM
  relative viability: 0.927
[4]; first compound 10 µM
  relative viability: 0.854
[4]; first compound 100 µM
  relative viability: 0.891

## NCI-H1703
[1]; 0.005 µM
  relative viability: 0.846
[1]; 0.01581 µM
  relative viability: 0.48
[1]; 0.05 µM
  relative viability: 0.266
[1]; 0.1581 µM
  relative viability: 0.216
[1]; 0.5 µM
  relative viability: 0.238
[2]; 1 µM
  relative viability: 0.835
[2]; 3.162 µM
  relative viability: 0.945
[2]; 10 µM
  relative viability: 0.908
[2]; 31.62 µM
  relative viability: 0.902
[2]; 100 µM
  relative viability: 0.879
[3]; 0.04 µM
  relative viability: 0.664
[3]; 0.1265 µM
  relative viability: 0.966
[3]; 0.4 µM
  relative viability: 0.906
[3]; 1.265 µM
  relative viability: 0.979
[3]; 4 µM
  relative viability: 0.877
[4]; first compound 1 µM
  relative viability: 0.285
[4]; first compound 3.162 µM
  relative viability: 0.336
[4]; first compound 10 µM
  relative viability: 0.374
[4]; first compound 31.62 µM
  relative viability: 0.34
[4]; first compound 100 µM
  relative viability: 0.266

## NCI-H2009
[1]; 0.005 µM
  relative viability: 1.01
[1]; 0.01581 µM
  relative viability: 1
[1]; 0.05 µM
  relative viability: 1.05
[1]; 0.1581 µM
  relative viability: 1.06
[1]; 0.5 µM
  relative viability: 1.09
[2]; 1 µM
  relative viability: 0.96
[2]; 3.162 µM
  relative viability: 1.01
[2]; 10 µM
  relative viability: 0.974
[2]; 31.62 µM
  relative viability: 0.65
[2]; 100 µM
  relative viability: 0.878
[3]; 0.04 µM
  relative viability: 1.02
[3]; 0.1265 µM
  relative viability: 1.04
[3]; 0.4 µM
  relative viability: 1.04
[3]; 1.265 µM
  relative viability: 1.03
[3]; 4 µM
  relative viability: 1.05
[4]; first compound 1 µM
  relative viability: 1.19
[4]; first compound 3.162 µM
  relative viability: 1.26
[4]; first compound 10 µM
  relative viability: 1.18
[4]; first compound 31.62 µM
  relative viability: 0.829
[4]; first compound 100 µM
  relative viability: 1.05

## Calu-6
[1]; 0.005 µM
  relative viability: 1.08
[1]; 0.01581 µM
  relative viability: 0.999
[1]; 0.05 µM
  relative viability: 1.03
[1]; 0.1581 µM
  relative viability: 1
[1]; 0.5 µM
  relative viability: 1.12
[2]; 1 µM
  relative viability: 1.06
[2]; 3.162 µM
  relative viability: 1.05
[2]; 10 µM
  relative viability: 1
[2]; 31.62 µM
  relative viability: 0.655
[2]; 100 µM
  relative viability: 0.899
[3]; 0.04 µM
  relative viability: 1.07
[3]; 0.1265 µM
  relative viability: 1.15
[3]; 0.4 µM
  relative viability: 1.13
[3]; 1.265 µM
  relative viability: 1.08
[3]; 4 µM
  relative viability: 1.05
[4]; first compound 1 µM
  relative viability: 0.952
[4]; first compound 3.162 µM
  relative viability: 0.883
[4]; first compound 10 µM
  relative viability: 0.76
[4]; first compound 31.62 µM
  relative viability: 0.636
[4]; first compound 100 µM
  relative viability: 0.706

## HCC-827
[1]; 0.005 µM
  relative viability: 1.03
[1]; 0.01581 µM
  relative viability: 1.01
[1]; 0.05 µM
  relative viability: 1.06
[1]; 0.1581 µM
  relative viability: 1.1
[1]; 0.5 µM
  relative viability: 1.15
[2]; 1 µM
  relative viability: 1.03
[2]; 3.162 µM
  relative viability: 1.02
[2]; 10 µM
  relative viability: 0.977
[2]; 31.62 µM
  relative viability: 0.809
[2]; 100 µM
  relative viability: 0.896
[3]; 0.04 µM
  relative viability: 1.07
[3]; 0.1265 µM
  relative viability: 1.05
[3]; 0.4 µM
  relative viability: 0.994
[3]; 1.265 µM
  relative viability: 0.976
[3]; 4 µM
  relative viability: 1.06
[4]; first compound 1 µM
  relative viability: 1.01
[4]; first compound 3.162 µM
  relative viability: 0.996
[4]; first compound 10 µM
  relative viability: 0.84
[4]; first compound 31.62 µM
  relative viability: 0.597
[4]; first compound 100 µM
  relative viability: 0.857
